Reference: patent publication US10385048B2, “Pesticidally active polycyclic derivatives with sulfur containing substituents” (Syngenta Participations AG, priority 2014, dated 2019)

Tests used:
Format in all cases: in vivo
Diabrotica Balteata = experiment: Diabrotica balteata (corn root worm), maize sprouts, L2 larvae; details: 96 h, application rate 200 ppm, 4 days after infestation, read-out: effect in at least one of the two categories (mortality or growth inhibition)
Procedure: Example B2: Diabrotica Balteata (Corn Root Worm)
Maize sprouts placed onto an agar layer in 24-well microtiter plates were treated with aqueous test solutions prepared from 10′000 ppm DMSO stock solutions by spraying. After drying, the plates were infested with L2 larvae (6 to 10 per well). The samples were assessed for mortality and growth inhibition in comparison to untreated samples 4 days after infestation.

Euschistus heros = Euschistus heros (neotropical brown stink bug), soybean leaves, N2 nymphs; details: 120 h, application rate 200 ppm, 5 days after infestation, read-out: effect in at least one of the two categories (mortality or growth inhibition)
Procedure: Example B3: Euschistus heros (Neotropical Brown Stink Bug)
Soybean leaves on agar in 24-well microtiter plates were sprayed with aqueous test solutions prepared from 10′000 ppm DMSO stock solutions. After drying the leaves were infested with N2 nymphs. The samples were assessed for mortality and growth inhibition in comparison to untreated samples 5 days after infestation.

Plutella xylostella = Plutella xylostella (diamond back moth), artificial diet, L2 larvae; details: 120 h, application rate 200 ppm, 5 days after infestation, read-out: effect in at least one of the two categories (mortality or growth inhibition)
Procedure: Example B7: Plutella xylostella (Diamond Back Moth)
24-well microtiter plates with artificial diet were treated with aqueous test solutions prepared from 10′000 ppm DMSO stock solutions by pipetting. After drying, the plates were infested with L2 larvae (10 to 15 per well). The samples were assessed for mortality and growth inhibition in comparison to untreated samples 5 days after infestation.

Myzus persicae [1] = experiment: Myzus persicae (green peach aphid) systemic activity, pea seedling roots; details: 144 h, test rate 24 ppm, 6 days after placing seedlings into test solutions
Myzus persicae [2] = experiment: Myzus persicae (green peach aphid) feeding/contact activity, sunflower leaf discs; details: foliar, 144 h, application rate 200 ppm, 6 days after infestation
Procedure: Example B5: Myzus persicae (Green Peach Aphid): Feeding/Contact Activity
(§1) Sunflower leaf discs were placed onto agar in a 24-well microtiter plate and sprayed with aqueous test solutions prepared from 10′000 ppm DMSO stock solutions. After drying, the leaf discs were infested with an aphid population of mixed ages. The samples were assessed for mortality 6 days after infestation.

Spodoptera littoralis [3] = experiment: Spodoptera littoralis (Egyptian cotton leaf worm), cotton leaf discs, L1 larvae; details: foliar, 72 h, application rate 200 ppm, L1 larvae on cotton leaf discs, 3 days after infestation
Procedure: Example B8: Spodoptera littoralis (Egyptian Cotton Leaf Worm)
Cotton leaf discs were placed onto agar in 24-well microtiter plates and sprayed with aqueous test solutions prepared from 10′000 ppm DMSO stock solutions. After drying the leaf discs were infested with five L1 larvae. The samples were assessed for mortality, anti-feeding effect, and growth inhibition in comparison to untreated samples 3 days after infestation. Control of Spodoptera littoralis by a test sample is given when at least one of the categories mortality, anti-feedant effect, and growth inhibition is higher than the untreated sample.

Spodoptera littoralis [4] = experiment: Spodoptera littoralis (Egyptian cotton leaf worm), uptake by lettuce roots from agar, eggs; details: 144 h, test rate 12.5 ppm, lettuce root uptake, 6 days after infestation, read-out: effect in at least one of the three categories (mortality, anti-feeding, or growth inhibition)
From the text: Example B9: Spodoptera littoralis (Egyptian Cotton Leaf Worm)
Test compounds were applied by pipette from 10′000 ppm DMSO stock solutions into 24-well plates and mixed with agar. Lettuce seeds were placed onto the agar and the multi well plate was closed by another plate which contained also agar. After 7 days the compound was absorbed by the roots and the lettuce grew into the lid plate. The lettuce leaves were then cut off into the lid plate. Spodoptera eggs were pipetted through a plastic stencil onto a humid gel blotting paper and the lid plate was closed with it. The samples were assessed for mortality, anti-feedant effect and growth inhibition in comparison to untreated samples 6 days after infestation.

Thrips tabaci = Thrips tabaci (onion thrips) feeding/contact activity, sunflower leaf discs; details: foliar, 144 h, application rate 200 ppm, population of mixed ages, 6 days after infestation
Procedure: Example B11: Thrips tabaci (Onion Thrips) Feeding/Contact Activity
as §1, with “on” for “onto”, “in” for “in a”, “plates” for “plate”, “drying” for “drying,”, “a thrips” for “an aphid”

Anopheles stephensi = Anopheles stephensi (Indian malaria mosquito), dry deposit in 12 well plates, adult females; details: application rate 200 ppm in ethanol, after 48 h and/or 24 h
Procedure: Example B13: Anopheles stephensi (Indian Malaria Mosquito)
(§2) Test solutions, at an application rate of 200 ppm in ethanol, were applied to 12 well tissue culture plates. Once the deposits were dry, five, two to five day old adult female Anopheles stephensi were added to each well, and sustained with a 10% sucrose solution in a cotton wool plug. Assessment of knockdown was made one hour after introduction, and mortality was assessed at 24 and 48 hours after introduction.

Bemisia tabaci = Bemisia tabaci (cotton white fly) feeding/contact activity, cotton leaf discs; details: foliar, 144 h, application rate 200 ppm, adult white flies, 6 days after incubation
Procedure: Example B1: Bemisia tabaci (Cotton White Fly): Feeding/Contact Activity
Cotton leaf discs were placed on agar in 24-well microtiter plates and sprayed with aqueous test solutions prepared from 10′000 ppm DMSO stock solutions. After drying the leaf discs were infested with adult white flies. The samples were checked for mortality 6 days after incubation.

Aedes aegypti = Aedes aegypti (yellow fever mosquito), dry deposit in 12 well plates, adult females; details: application rate 200 ppm in ethanol, after 48 h and/or 24 h
Procedure: Example B12: Aedes aegypti (Yellow Fever Mosquito)
as §2, with “Aedes aegypti” for “Anopheles stephensi”

CCSc1cc2nc(-c3ncc(C(F)(F)F)cc3SCC)n(C)c2cn1 [Compound P1]
≥ 80%: percent effect (mortality or growth inhibition) at 200 ppm (Diabrotica Balteata) | percent effect (mortality or growth inhibition) at 200 ppm (Euschistus heros) | percent effect (mortality or growth inhibition) at 200 ppm (Plutella xylostella)

CCS(=O)(=O)c1cc(C(F)(F)F)cnc1-c1nc2cc(OC)ncc2n1C [Compound P2]
≥ 80%: mortality at 24 ppm (Myzus persicae [1])

CCS(=O)(=O)c1cc(C(F)(F)F)cnc1-c1nc2cc(OCC(F)F)ncc2n1C [Compound P3]
≥ 80%: mortality at 200 ppm (Myzus persicae [2]) | percent effect (mortality or growth inhibition) at 200 ppm (Diabrotica Balteata) | percent control (mortality, anti-feedant effect or growth inhibition) at 200 ppm (Spodoptera littoralis [3]) | percent effect (mortality or growth inhibition) at 200 ppm (Euschistus heros) | percent effect (mortality, anti-feeding or growth inhibition) at 12.5 ppm (Spodoptera littoralis [4]) | percent effect (mortality or growth inhibition) at 200 ppm (Plutella xylostella)

CCS(=O)(=O)c1cc(C(F)(F)F)cnc1-c1nc2cc(OC(F)(F)Br)ncc2n1C [Compound P5, 6-[bromo(difluoro)methoxy]-2-[3-ethylsulfonyl-5-(trifluoromethyl)-2-pyridyl]-3-methyl-imidazo[4,5-c]pyridine]
≥ 80%: mortality at 200 ppm (Myzus persicae [2]) | percent effect (mortality or growth inhibition) at 200 ppm (Diabrotica Balteata) | percent control (mortality, anti-feedant effect or growth inhibition) at 200 ppm (Spodoptera littoralis [3]) | mortality at 200 ppm (Thrips tabaci) | percent effect (mortality or growth inhibition) at 200 ppm (Euschistus heros) | percent effect (mortality, anti-feeding or growth inhibition) at 12.5 ppm (Spodoptera littoralis [4]) | pest or weed control at 200 ppm (Anopheles stephensi) | mortality at 200 ppm (Bemisia tabaci) | pest or weed control at 200 ppm (Aedes aegypti)

CCS(=O)(=O)c1cc(C(F)(F)F)cnc1-c1nc2cc(OC(F)F)ncc2n1C [Compound P6, 6-(difluoromethoxy)-2-[3-ethylsulfonyl-5-(trifluoromethyl)-2-pyridyl]-3-methyl-imidazo[4,5-c]pyridine]
≥ 80%: mortality at 200 ppm (Myzus persicae [2]) | percent effect (mortality or growth inhibition) at 200 ppm (Diabrotica Balteata) | percent control (mortality, anti-feedant effect or growth inhibition) at 200 ppm (Spodoptera littoralis [3]) | mortality at 200 ppm (Thrips tabaci) | mortality at 200 ppm (Bemisia tabaci) | percent effect (mortality or growth inhibition) at 200 ppm (Plutella xylostella)

CCSc1cc(C(F)(F)F)cnc1-c1nc2cc(OC(F)F)ncc2n1C [Compound P7]
≥ 80%: percent control (mortality, anti-feedant effect or growth inhibition) at 200 ppm (Spodoptera littoralis [3])

CCSc1cc(C(F)(F)F)cnc1-c1nc2cc(SC(F)(F)F)ncc2n1C [Compound P11, 2-[3-Ethylsulfanyl-5-(trifluoromethyl)-2-pyridyl]-3-methyl-6-(trifluoromethylsulfanyl)imidazo[4,5-c]pyridine]
≥ 80%: mortality at 200 ppm (Myzus persicae [2]) | percent effect (mortality or growth inhibition) at 200 ppm (Diabrotica Balteata) | percent control (mortality, anti-feedant effect or growth inhibition) at 200 ppm (Spodoptera littoralis [3]) | percent effect (mortality or growth inhibition) at 200 ppm (Euschistus heros) | pest or weed control at 200 ppm (Anopheles stephensi) | percent effect (mortality or growth inhibition) at 200 ppm (Plutella xylostella) | pest or weed control at 200 ppm (Aedes aegypti)

CCSc1cc(C(F)(F)F)cnc1-c1nc2cc(OC(F)F)ncc2n1C [Compound P13, 6-(difluoromethoxy)-2-[3-ethylsulfanyl-5-(trifluoromethyl)-2-pyridyl]-3-methyl-imidazo[4,5-c]pyridine]
≥ 80%: mortality at 200 ppm (Myzus persicae [2]) | percent effect (mortality or growth inhibition) at 200 ppm (Diabrotica Balteata) | percent effect (mortality or growth inhibition) at 200 ppm (Euschistus heros) | pest or weed control at 200 ppm (Anopheles stephensi) | mortality at 200 ppm (Bemisia tabaci) | percent effect (mortality or growth inhibition) at 200 ppm (Plutella xylostella) | pest or weed control at 200 ppm (Aedes aegypti)

CCS(=O)(=O)c1cc(Br)cnc1-c1nc2cc(SC(F)(F)F)ncc2n1C [Compound P16]
≥ 80%: mortality at 200 ppm (Myzus persicae [2]) | percent effect (mortality or growth inhibition) at 200 ppm (Diabrotica Balteata) | percent control (mortality, anti-feedant effect or growth inhibition) at 200 ppm (Spodoptera littoralis [3]) | mortality at 200 ppm (Thrips tabaci) | percent effect (mortality or growth inhibition) at 200 ppm (Euschistus heros) | percent effect (mortality, anti-feeding or growth inhibition) at 12.5 ppm (Spodoptera littoralis [4]) | pest or weed control at 200 ppm (Anopheles stephensi) | mortality at 200 ppm (Bemisia tabaci) | percent effect (mortality or growth inhibition) at 200 ppm (Plutella xylostella) | pest or weed control at 200 ppm (Aedes aegypti)

CCS(=O)(=O)c1cc(C(F)(F)F)cnc1-c1nc2cc(SCC(F)(F)F)ncc2n1C [Compound P17, 2-[3-Ethylsulfonyl-5-(trifluoromethyl)-2-pyridyl]-3-methyl-6-(2,2,2-trifluoroethylsulfanyl) imidazo[4,5-c]pyridine]
≥ 80%: mortality at 200 ppm (Myzus persicae [2]) | percent effect (mortality or growth inhibition) at 200 ppm (Diabrotica Balteata)
